Row | Compound | melting point
1 | CCN/C(=N\S(=O)(=O)c1ccccc1Cl)N1CCC(CC)=N1 | 87 to 88 °C
2 | O=C(Nc1ccccc1Br)C(F)(F)F [compound 12, N-(2-Bromo-phenyl)-2,2,2-trifluoro-acetamide] | 58 to 59 °C
3 | NS(=O)(=O)c1c(Cl)nc2sccn12 [compound 21, 6-Chloro-imidazo[2,1-b]thiazole-5-sulfonic acid amide] | 184 to 185 °C
4 | CCNC(=S)N1CC(C)(C)C=N1 [compound 5, 4,4-Dimethyl-4,5-dihydro-pyrazole-1-carbothioic acid ethylamide] | 66 to 67 °C
5 | O=C(Nc1ccc(S(=O)(=O)Cl)cc1Br)C(F)(F)F [compound 13, 3-Bromo-4-(2,2,2-trifluoro-acetylamino)-benzenesulfonyl chloride] | 60 to 61 °C
6 | CCNC(=S)N1CC2(C=N1)CCCC2 [compound 1, 2,3-Diazaspiro[4.4]non-3-ene-2-carbothioic acid ethylamide] | 120 to 121 °C
7 | CC1(C)C=NN(/C(N)=N/S(=O)(=O)c2ccc(Cl)s2)C1 [compound 33, 5-Chloro-thiophene-2-sulfonic acid amino-(4,4-dimethyl-4,5-dihydro-pyrazol-1-yl)-methylene-amide] | 164 to 165 °C
8 | NS(=O)(=O)c1ccc(Cl)s1 [compound 30, 5-Chloro-thiophene-2-sulfonic acid amide] | 109 to 110 °C
9 | NS(=O)(=O)c1ccc(NC(=O)C(F)(F)F)c(Br)c1 [compound 14, N-(2-Bromo-4-sulfamoyl-phenyl)-2,2,2-trifluoro-acetamide] | 171 to 172 °C
10 | CC1(C)C=NN(C(N)=S)C1 [compound 31, 4,4-Dimethyl-4,5-dihydro-pyrazole-1-carbothioic acid amide] | 149 to 150 °C
11 | CCN/C(=N\S(=O)(=O)/C=C/c1ccccc1)N1CC(CC)C=N1 (stereo not drawn) [compound 29, Trans-2-phenyl-ethenesulfonic acid ethylamino-(4-ethyl-4,5-dihydro-pyrazol-1-yl)-methylene-amide] | 91 to 92 °C
12 | CCN/C(=N\S(=O)(=O)c1ccc(N)cc1)N1CC2(C=N1)CCCC2 [compound 4, 4-Amino-N-[(2,3-diaza-spiro[4.4]non-3-en-2-yl)-ethylamino-methylene]-benzenesulfonamide] | 141 to 142 °C

Reference: patent US9422244B2, “Synthesis of substituted pyrazoline carboxamidine derivatives” (Abbvie Bahamas Ltd., priority 2010, dated 2016)
